{"source": "patent US20240368534A1", "about": "(priority 2021, published 2024)", "key": {"[1]": {"system": "transcription factor DmpR", "type": "cell-based, Pseudomonas spp. CF600"}, "[2]": {"system": "OPH-E. coli/S. oneidensis mixtures", "type": "cell-based", "conditions": "for anodic current: 20 μM; for charge produced / charge relative to cell only baseline: at 24 hours"}, "[3]": {"system": "OPH-E. coli/S. oneidensis mixtures", "type": "cell-based"}, "[4]": {"target": "T1, organophosphate hydrolase (OPH) displayed on E. coli (Brevundimonas diminuta, UniProt P0A434)", "T1 construct": "expressed in transfected cells; host or cells: E. coli BL21 (DE3) carrying pSKB3-INPNC-OPH, IPTG-induced, lyophilized whole cells", "type": "biochemical, Pseudomonas diminuta"}, "[5]": {"system": "engineered S. oneidensis", "type": "cell-based"}, "[6]": {"system": "transcription factor DmpR", "type": "cell-based, Pseudomonas spp. CF600", "remark": "listed apart in the source"}}, "note": "Read-outs that look alike come from different tables or passages of the source.", "data": [{"smiles": "Oc1ccc(O)cc1", "note": "[hydroquinone]", "values": [{"measurement": "GFP fluorescence response", "setting": "[1]", "value": "very low fluorescence"}]}, {"smiles": "Cc1ccc(O)c(O)c1", "note": "[4-methylcatechol]", "values": [{"measurement": "GFP fluorescence response", "setting": "[1]", "value": "very low fluorescence"}]}, {"smiles": "CCOP(=S)(OCC)Oc1ccc([N+](=O)[O-])cc1", "note": "[parathion]", "values": [{"measurement": "total charge accumulated", "setting": "[2]", "value": "1.04±0.66", "unit": "mA*h"}, {"measurement": "anodic current", "setting": "[2]", "value": "increase in anodic current"}, {"measurement": "increase in GFP fluorescence", "setting": "[3]", "value": 58, "unit": "fold"}]}, {"smiles": "NCCc1ccc(O)c(O)c1", "note": "[dopamine]", "values": [{"measurement": "GFP fluorescence response", "setting": "[1]", "value": "very low fluorescence"}]}, {"smiles": "CCOP(=O)(OCC)Oc1ccc([N+](=O)[O-])cc1", "note": "[paraoxon]", "values": [{"measurement": "GFP fluorescence response", "setting": "[1]", "value": "No such increase in the fluorescence"}, {"measurement": "charge accumulation", "setting": "[2]", "value": "0.140±0.02", "unit": "mA*h"}, {"measurement": "limit of detection of the sensor", "setting": "[2]", "value": 0.15, "unit": "µM"}, {"measurement": "total charge accumulated", "setting": "[2]", "value": "1.64±0.18", "unit": "mA*h"}, {"measurement": "charge produced", "setting": "[2]; 1 μM", "value": "0.101±0.017", "unit": "mA*h"}, {"measurement": "charge relative to cell only baseline", "setting": "[2]; 1 μM", "value": 1.7, "unit": "times"}, {"measurement": "charge produced", "setting": "[2]; 5 μM", "value": "0.180±0.018", "unit": "mA*h"}, {"measurement": "charge relative to cell only baseline", "setting": "[2]; 5 μM", "value": "approximately three times higher"}, {"measurement": "anodic current", "setting": "[2]", "value": "increase in anodic current"}, {"measurement": "Km", "setting": "[4]; read-out: Michaelis constant (KM)", "value": "198 ± 81.7", "unit": "µM"}, {"measurement": "anodic current", "setting": "[5]", "value": "did not yield a considerable current"}, {"measurement": "total charge", "setting": "[5]", "value": "0.21±0.02", "unit": "mA*h"}]}, {"smiles": "COP(=O)(OC)Oc1ccc([N+](=O)[O-])cc1", "note": "[paraoxon-methyl]", "values": [{"measurement": "total charge accumulated", "setting": "[2]", "value": "1.03±0.31", "unit": "mA*h"}, {"measurement": "anodic current", "setting": "[2]", "value": "increase in anodic current"}, {"measurement": "degradation rate", "setting": "[4]", "value": "significantly enhanced degradation rates"}, {"measurement": "rate of p-NP production", "setting": "[4]", "value": "very slow rates of p-NP production"}, {"measurement": "increase in GFP fluorescence", "setting": "[3]", "value": 48, "unit": "fold"}]}, {"smiles": "CCOC(=O)CC(SP(=O)(OC)OC)C(=O)OCC", "note": "(stereo not shown) [malaoxon]", "values": [{"measurement": "total charge accumulated", "setting": "[2]", "value": "0.068±0.006", "unit": "mA*h"}, {"measurement": "anodic current", "setting": "[2]", "value": "no significant current"}, {"measurement": "GFP expression", "setting": "[3]", "value": "GFP expression was not observed"}]}, {"smiles": "O=[N+]([O-])c1ccc(O)cc1", "note": "[p-NP, p-nitrophenol]", "values": [{"measurement": "GFP expression response", "setting": "[6]", "value": "logarithmic increase in GFP expression"}, {"measurement": "increase in GFP fluorescence", "setting": "[1]", "value": 54, "unit": "fold"}, {"measurement": "lowest concentration at which fluorescence observed", "setting": "[1]", "value": 6.25, "unit": "µM"}, {"measurement": "anodic current", "setting": "[5]", "value": "continuous increase in anodic current"}, {"measurement": "total charge", "setting": "[5]", "value": "1.32±0.48", "unit": "mA*h"}]}]}
